Values of other authors in article PMC9369419 (International Journal of Molecular Sciences, 2022).

Tests used:
Conditions in all cases: recombinant rat iGluR, mean ± SEM; cited from earlier work
GluK3 = target: T1, GluK3 (Rattus norvegicus, UniProt P42264)
T1 construct: made in house; host or cells: Sf9 insect cells (membranes)

GluK2 = target: T2, GluK2 (Rattus norvegicus, UniProt P42260)
T2 construct: made in house; host or cells: Sf9 insect cells (membranes)

GluK5 = target: T3, GluK5 (Rattus norvegicus, UniProt Q63273)
T3 construct: made in house; host or cells: Sf9 insect cells (membranes)
T3 sequence (Q63273 15-979): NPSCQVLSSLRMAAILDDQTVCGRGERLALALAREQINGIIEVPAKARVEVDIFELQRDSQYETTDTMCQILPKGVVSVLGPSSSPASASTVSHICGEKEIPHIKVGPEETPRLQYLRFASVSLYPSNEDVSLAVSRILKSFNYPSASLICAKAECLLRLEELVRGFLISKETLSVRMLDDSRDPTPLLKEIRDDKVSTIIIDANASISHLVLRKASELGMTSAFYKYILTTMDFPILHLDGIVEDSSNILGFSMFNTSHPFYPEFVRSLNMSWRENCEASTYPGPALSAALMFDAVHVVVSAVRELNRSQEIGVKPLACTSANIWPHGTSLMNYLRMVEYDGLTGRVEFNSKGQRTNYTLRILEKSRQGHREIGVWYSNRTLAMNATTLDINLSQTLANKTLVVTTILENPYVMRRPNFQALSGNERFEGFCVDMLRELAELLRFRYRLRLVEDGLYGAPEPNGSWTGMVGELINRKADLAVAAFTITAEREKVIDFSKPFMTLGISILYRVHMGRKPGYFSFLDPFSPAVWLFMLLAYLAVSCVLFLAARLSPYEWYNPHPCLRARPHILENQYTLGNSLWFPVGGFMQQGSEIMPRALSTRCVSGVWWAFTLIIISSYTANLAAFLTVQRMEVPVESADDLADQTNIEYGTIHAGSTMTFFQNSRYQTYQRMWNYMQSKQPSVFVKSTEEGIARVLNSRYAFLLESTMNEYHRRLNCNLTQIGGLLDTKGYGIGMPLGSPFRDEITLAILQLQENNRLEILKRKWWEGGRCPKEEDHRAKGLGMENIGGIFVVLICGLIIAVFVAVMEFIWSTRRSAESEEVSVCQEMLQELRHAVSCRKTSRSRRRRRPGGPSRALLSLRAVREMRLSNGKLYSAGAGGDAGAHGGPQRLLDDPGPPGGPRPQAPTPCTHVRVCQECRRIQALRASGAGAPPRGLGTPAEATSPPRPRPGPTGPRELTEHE

GluK1 = target: T4, GluK1 (Rattus norvegicus, UniProt P22756)
T4 construct: made in house; host or cells: Sf9 insect cells (membranes)

GluA2 = target: T5, GluA2 (Rattus norvegicus, UniProt P19491)
T5 construct: made in house; host or cells: Sf9 insect cells (membranes)
T5 sequence (P19491 22-883): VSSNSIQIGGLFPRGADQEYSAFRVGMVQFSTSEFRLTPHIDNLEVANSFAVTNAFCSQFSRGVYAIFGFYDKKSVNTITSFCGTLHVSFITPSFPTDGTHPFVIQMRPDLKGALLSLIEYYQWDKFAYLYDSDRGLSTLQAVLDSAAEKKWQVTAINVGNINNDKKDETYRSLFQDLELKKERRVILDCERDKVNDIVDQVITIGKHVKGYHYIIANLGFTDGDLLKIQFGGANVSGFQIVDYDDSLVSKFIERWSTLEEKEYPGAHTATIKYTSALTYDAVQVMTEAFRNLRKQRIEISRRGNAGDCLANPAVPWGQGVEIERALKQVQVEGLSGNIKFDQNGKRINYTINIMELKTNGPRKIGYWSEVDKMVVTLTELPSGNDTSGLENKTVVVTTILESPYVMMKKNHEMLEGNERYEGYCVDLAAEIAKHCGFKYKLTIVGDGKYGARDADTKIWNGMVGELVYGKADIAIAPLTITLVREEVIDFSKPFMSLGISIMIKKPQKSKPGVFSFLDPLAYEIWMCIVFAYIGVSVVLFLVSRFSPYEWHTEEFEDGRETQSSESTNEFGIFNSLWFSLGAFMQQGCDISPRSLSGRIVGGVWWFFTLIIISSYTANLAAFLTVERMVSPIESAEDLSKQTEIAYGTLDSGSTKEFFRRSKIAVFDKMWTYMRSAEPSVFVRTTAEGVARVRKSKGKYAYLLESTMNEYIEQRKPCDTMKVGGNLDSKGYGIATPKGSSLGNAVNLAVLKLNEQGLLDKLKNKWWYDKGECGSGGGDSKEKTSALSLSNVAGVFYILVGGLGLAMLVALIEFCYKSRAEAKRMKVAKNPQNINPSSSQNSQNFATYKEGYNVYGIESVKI

T4 sequence (P22756 31-949): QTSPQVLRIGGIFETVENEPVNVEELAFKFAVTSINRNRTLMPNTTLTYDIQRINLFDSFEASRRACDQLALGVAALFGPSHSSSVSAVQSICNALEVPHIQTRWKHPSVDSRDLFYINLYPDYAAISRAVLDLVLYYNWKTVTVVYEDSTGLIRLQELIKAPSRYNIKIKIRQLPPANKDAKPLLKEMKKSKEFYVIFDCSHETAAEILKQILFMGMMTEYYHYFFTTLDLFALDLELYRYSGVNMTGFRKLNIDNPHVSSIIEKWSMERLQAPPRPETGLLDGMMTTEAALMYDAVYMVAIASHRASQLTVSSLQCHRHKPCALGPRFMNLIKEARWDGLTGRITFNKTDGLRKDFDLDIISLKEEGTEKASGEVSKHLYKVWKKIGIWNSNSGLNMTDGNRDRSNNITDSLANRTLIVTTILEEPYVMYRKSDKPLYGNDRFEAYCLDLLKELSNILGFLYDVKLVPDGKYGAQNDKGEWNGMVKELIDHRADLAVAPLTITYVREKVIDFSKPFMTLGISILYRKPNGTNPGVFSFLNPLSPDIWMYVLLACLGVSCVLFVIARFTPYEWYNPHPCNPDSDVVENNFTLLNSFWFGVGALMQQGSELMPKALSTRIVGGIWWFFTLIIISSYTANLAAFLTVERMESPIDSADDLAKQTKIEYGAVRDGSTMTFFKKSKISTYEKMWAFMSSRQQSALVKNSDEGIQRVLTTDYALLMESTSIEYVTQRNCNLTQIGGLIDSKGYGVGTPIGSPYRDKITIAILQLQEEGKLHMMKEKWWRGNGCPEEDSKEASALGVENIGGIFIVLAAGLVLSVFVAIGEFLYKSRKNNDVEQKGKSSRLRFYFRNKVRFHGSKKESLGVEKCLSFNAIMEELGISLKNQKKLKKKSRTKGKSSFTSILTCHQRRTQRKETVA
T2 sequence (P42260 32-908): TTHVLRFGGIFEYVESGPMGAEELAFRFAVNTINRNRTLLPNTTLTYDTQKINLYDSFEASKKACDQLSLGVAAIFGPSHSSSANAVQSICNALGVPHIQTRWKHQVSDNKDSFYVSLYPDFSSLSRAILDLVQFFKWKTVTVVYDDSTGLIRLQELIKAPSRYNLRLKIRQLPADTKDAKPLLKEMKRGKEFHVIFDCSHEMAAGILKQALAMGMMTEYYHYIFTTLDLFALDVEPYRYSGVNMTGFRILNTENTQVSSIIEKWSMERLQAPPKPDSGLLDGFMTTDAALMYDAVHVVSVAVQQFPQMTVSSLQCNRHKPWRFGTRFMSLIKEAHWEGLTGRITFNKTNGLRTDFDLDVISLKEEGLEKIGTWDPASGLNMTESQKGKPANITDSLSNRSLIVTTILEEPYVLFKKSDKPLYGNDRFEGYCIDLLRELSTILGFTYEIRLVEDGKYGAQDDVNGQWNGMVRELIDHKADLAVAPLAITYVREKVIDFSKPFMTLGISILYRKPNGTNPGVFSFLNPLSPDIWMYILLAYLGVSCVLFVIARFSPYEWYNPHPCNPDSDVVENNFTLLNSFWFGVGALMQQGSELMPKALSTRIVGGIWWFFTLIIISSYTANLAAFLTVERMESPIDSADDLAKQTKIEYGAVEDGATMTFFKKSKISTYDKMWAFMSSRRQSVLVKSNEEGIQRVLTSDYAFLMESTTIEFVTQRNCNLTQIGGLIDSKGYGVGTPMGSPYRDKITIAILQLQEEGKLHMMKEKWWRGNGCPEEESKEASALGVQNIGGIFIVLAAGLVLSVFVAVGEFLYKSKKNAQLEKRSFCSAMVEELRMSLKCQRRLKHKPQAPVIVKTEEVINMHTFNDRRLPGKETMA
T1 sequence (P42264 32-919): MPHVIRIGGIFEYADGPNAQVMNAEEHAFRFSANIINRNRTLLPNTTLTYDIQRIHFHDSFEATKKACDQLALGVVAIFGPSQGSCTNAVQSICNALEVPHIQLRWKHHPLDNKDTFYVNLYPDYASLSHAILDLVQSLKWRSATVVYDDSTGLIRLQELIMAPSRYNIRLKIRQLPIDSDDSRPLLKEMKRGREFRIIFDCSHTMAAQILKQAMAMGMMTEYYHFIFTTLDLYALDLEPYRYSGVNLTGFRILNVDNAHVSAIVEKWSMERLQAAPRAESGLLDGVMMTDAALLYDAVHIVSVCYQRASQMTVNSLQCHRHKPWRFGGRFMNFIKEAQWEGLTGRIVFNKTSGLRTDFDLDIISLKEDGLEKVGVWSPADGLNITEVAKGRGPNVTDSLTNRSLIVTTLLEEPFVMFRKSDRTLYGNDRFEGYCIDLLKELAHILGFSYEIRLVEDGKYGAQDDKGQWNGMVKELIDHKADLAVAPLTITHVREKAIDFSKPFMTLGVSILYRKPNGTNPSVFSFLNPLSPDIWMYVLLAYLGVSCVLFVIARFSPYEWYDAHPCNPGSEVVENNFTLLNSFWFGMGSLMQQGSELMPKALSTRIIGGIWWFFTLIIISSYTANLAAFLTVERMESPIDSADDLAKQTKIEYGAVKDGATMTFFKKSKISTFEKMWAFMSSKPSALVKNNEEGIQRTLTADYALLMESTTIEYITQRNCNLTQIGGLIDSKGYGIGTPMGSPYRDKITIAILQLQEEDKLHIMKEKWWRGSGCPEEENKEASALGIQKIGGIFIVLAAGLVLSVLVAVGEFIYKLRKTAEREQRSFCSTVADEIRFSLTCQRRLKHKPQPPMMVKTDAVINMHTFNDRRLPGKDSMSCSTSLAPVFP

| SMILES | Ki (GluK3) [µM] | Ki (GluK2) [µM] | Ki (GluK5) [µM] | Ki (GluK1) [µM] | Ki (GluA2) [µM] |
| --- | --- | --- | --- | --- | --- |
| O=c1[nH]c2cc([N+](=O)[O-])c([N+](=O)[O-])cc2[nH]c1=O [DNQX] | 0.36 ± 0.03 | 2.1 ± 0.3 | 7.1 ± 0.9 | 0.65 ± 0.03 |  |
| O=C(Nn1c(=O)c(=O)[nH]c2cc(C#Cc3ccccc3)ccc21)c1ccccc1 [Compound 1, N-(2,3-dioxo-6-(phenylethynyl)-3,4-dihydroquinoxalin-1(2H)-yl)benzamide] |  | ~100 | > 100 | > 100 | 24 ± 6 |
